Entries after “also recorded” stand apart in the source; their conditions may differ.
Tests used:
[1] = target: glucose oxidase (Aspergillus niger, UniProt P13006); details: test elements for electrochemically determining glucose; WO 2007/097653, Loose (2006); cited from earlier work
[2] = tested on: Glucose dehydrogenase Mut. 2; experiment: Enzymatic activity of glucose dehydrogenase mutant 2 in solution after storage; format: biochemical; details: for stabilizing effect in solution: 1-4% (w/v) stabilizer in solution, storage at 4, 35 or 45° C.; for Enzymatic Activity: in solution
Experimental: Aliquots of a solution including a glucose dehydrogenase mutant 2 as disclosed in WO Patent Application Publication No. 2011/020856 was combined with different amounts of ectoine or hydroxyectoine as indicated below in Table 4.
The aliquots were stored under different storage conditions (8 days, 4° C.; 8 days 35° C., 4 days 4° C. followed by 4 days 45° C.), and the enzymatic activity was determined after the storage.

[3] = tested on: glucose dehydrogenase and diaphorase; experiment: Blood glucose measurement with stored test elements as indicator for enzymatic activity; format: biochemical, B. subtilis; details: 1 g/100 g composition; stored 63 days at 4, 24, 35 and 45° C.; normalized to 4° C.
Experimental: Test elements were stored in plastic vials in the presence of a drying agent for 63 days at 4° C. (KS), 24° C. (RT), 35° C. (DT) and 45° C. (HT). Test elements were used to determine blood glucose levels in a plurality of venous blood samples. The samples were measured with a reference method (Hitachi) in parallel. Results were normalized with respect to the KS stored test elements.

[4] = target: GDH from B. subtilis (Bacillus subtilis, UniProt P12310); experiment: Enzymatic activity in eluted test elements after dry storage (GDH); format: biochemical; details: concentrations larger than 0.3 g/100 g coating composition; test elements stored dry 6 weeks at 45° C.
GDH from B. subtilis, sequence (P12310 whole entry): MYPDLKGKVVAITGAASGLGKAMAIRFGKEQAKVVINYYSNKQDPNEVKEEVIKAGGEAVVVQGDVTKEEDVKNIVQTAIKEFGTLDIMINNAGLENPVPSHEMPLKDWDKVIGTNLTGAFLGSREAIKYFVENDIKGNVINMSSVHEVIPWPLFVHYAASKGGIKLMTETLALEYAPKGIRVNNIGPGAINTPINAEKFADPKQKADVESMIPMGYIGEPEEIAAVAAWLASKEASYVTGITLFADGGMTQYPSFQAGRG
Experimental: (§1) Four different reaction films for determining glucose levels were generated and coated on a foil essentially as described in EP Patent No. 0 821 234. The formulation of the first coat/film layer composition is shown below in Table 1.
(§2) The pH was adjusted to 6.8, and the composition was coated as a first film (about 120 μm) on a polycarbonate foil (125 μm). The coated composition was subsequently dried at 50° C.
(§3) The pH was adjusted to 6.8, and the composition was coated as a second film (about 25 μm) onto the first film coated on the foil. The coated composition was subsequently dried at 50° C. Test strips for glucose determination were generated as described in EP Patent No. 0 821 234.
(§4) Test elements were stored in plastic vials in the presence of a drying agent for 6 weeks at 45° C. In a subsequent step, the test field of a test element was eluted by ultra-sonication using elution buffer. Enzymatic activity was determined in the supernatant.

[5] = tested on: lactate dehydrogenase; details: in solution; Andersson et al. (2000); cited from earlier work
[6] = tested on: diaphorase from B. subtilis; experiment: Enzymatic activity in eluted test elements after dry storage (diaphorase); format: biochemical; details: test elements stored dry 6 weeks at 45° C.
Experimental: as §1, §2, §3, §4

[7] = target: Gluc-DOR (a PQQ-dependent GDH) (Acinetobacter calcoaceticus, UniProt P13650); experiment: Enzymatic activity in test elements including Gluc-DOR; format: biochemical; details: dry test element; after 3 weeks at 45° C.
Gluc-DOR (a PQQ-dependent GDH), sequence (P13650 25-478): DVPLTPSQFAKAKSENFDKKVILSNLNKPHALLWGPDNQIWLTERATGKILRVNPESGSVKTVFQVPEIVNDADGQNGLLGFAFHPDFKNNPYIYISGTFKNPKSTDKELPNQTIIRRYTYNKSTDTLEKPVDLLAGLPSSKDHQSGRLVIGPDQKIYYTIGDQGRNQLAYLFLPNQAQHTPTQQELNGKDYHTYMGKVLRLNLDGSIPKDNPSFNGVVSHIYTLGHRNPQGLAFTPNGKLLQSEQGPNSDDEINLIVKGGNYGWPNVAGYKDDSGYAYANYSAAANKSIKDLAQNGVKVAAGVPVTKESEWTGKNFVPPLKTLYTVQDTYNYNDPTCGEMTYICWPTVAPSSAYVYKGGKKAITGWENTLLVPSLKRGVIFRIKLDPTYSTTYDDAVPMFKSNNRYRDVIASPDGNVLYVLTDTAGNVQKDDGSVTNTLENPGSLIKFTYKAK
Experimental: (§5) A test element with Gluc-DOR and a mutant thereof (Gluc-DOR 31) was generated as described above in Example 1. The test element was analyzed as described above in Example 2. The determination of the enzymatic activity was carried out using nitrosoaniline as described in EP Patent No. 0 620 283.

[8] = tested on: glucose dehydrogenase and diaphorase; experiment: Enzymatic activity in test elements with different buffers; format: biochemical, B. subtilis; details: 2 g ectoine per 100 g first coating film; phosphate-buffer pH 6.8 or HEPES pH 7.1; 45 days, 45° C. to 4° C.
From the text: Test elements were stored and treated essentially as described in Example 3. Different buffers, namely a phosphate-buffer pH 6.8, without stabilizer, a phosphate-buffer pH 6.8, 2 g ectoine per 100 g first coating film, a HEPES buffer pH 7.1, without stabilizer, and a HEPES buffer pH 7.1, 2 g ectoine per 100 g first coating film, were used in the coating compositions as indicated in FIG. 4.

[9] = tested on: Gluc-DOR 31 mutant; experiment: Enzymatic activity in test elements including Gluc-DOR 31 mutant; format: biochemical; details: dry test element; after 3 weeks at 45° C.
Experimental: as §5

[10] = stabilizer about 1%, 4 days at 4° C., 4 days at 45° C.
[11] = stabilizer about 1%, 8 days at 4° C.
[12] = stabilizer about 1%, 8 days at 35° C.
[13] = stabilizer about 2%, 4 days at 4° C., 4 days at 45° C.
[14] = stabilizer about 2%, 8 days at 4° C.
[15] = stabilizer about 2%, 8 days at 35° C.
[16] = stabilizer about 4%, 4 days at 4° C., 4 days at 45° C.
[17] = stabilizer about 4%, 8 days at 4° C.
[18] = stabilizer about 4%, 8 days at 35° C.

glucose oxidase, sequence (P13006 17-605, species assumed): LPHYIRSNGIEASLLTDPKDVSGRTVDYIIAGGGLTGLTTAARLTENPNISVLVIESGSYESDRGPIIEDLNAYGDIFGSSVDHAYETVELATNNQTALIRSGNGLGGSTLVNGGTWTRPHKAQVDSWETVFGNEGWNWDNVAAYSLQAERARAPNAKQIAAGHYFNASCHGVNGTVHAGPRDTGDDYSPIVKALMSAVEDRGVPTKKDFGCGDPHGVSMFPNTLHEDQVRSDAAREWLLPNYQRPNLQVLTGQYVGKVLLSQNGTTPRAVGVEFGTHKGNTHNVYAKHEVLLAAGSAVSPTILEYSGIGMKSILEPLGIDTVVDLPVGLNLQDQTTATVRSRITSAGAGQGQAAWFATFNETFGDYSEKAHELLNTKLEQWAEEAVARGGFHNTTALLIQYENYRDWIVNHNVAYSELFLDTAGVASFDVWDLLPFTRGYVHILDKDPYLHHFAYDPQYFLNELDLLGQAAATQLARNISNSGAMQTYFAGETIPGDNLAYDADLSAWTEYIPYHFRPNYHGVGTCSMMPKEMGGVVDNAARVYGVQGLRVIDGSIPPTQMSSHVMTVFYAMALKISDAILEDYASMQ

SMILES | stabilization of glucose oxidase [1] | stabilizing effect in solution [2] | Enzymatic Activity [2, 10] [kU/g] | Enzymatic Activity [2, 11] [kU/g] | Enzymatic Activity [2, 12] [kU/g] | Enzymatic Activity [2, 13] [kU/g] | Enzymatic Activity [2, 14] [kU/g] | Enzymatic Activity [2, 15] [kU/g] | Enzymatic Activity [2, 16] [kU/g] | Enzymatic Activity [2, 17] [kU/g] | Enzymatic Activity [2, 18] [kU/g] | preservation of enzymatic activities (measured glucose level) [3] | stabilizing effect (activity versus test elements without stabilizer) [4] | prevention of protein aggregation [5] | stabilization of diaphorase [6] | stabilizing effect on Gluc-DOR [7] | stabilizing activity with different buffers [8] | stabilizing effect on Gluc-DOR 31 mutant [9]
CC1=NC[C@H](O)[C@@H](C(=O)O)N1 [hydroxyectoine] | Stabilization | No stabilizing effect | 52 | 208 | 122 | 60 | 221 | 141 | 56 | 207 | 131 | act as stabilizers | same effect | incapable of preventing protein aggregation | stabilized | – | – | –
CC1=NCC[C@@H](C(=O)O)N1 [ectoine, (S)-2-methyl-3,4,5,6-tetrahydropyrimidine-4-carboxylic acid] | Stabilization | No stabilizing effect; also recorded: not observed | 60 | 222 | 144 | 59 | 222 | 149 | 57 | 207 | 137 | act as stabilizers | more than 10% | – | stabilized | stabilizing effect | observed independent of the buffer system | stabilizing effect
